Read-outs that look alike come from different tables or passages of the source.

In patent US11384078B2, “5,6-fused-bicyclic compounds and compositions for the treatment of parasitic diseases” (NOVARTIS AG, priority 2017, dated 2022) one finds EC50 data, which are given here for 16 molecules.

Common to all, as to type: cell-based
In experiment [1] the test system is Leishmania donovani axenic amastigote. Description: In vitro assay for growth inhibition of Leishmania donovani axenic amastigote (Cell TiterGlo luminescence). The settings on record: L. donovani axenic amastigotes in vitro, read-out: L. donovani amastigotes EC50. In a few lines: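 Compound-treated wells received 9600 axenic amastigotes in RPMI 1640-based medium at pH 5.5 (37 °C, 5% CO2). Growth measured as ATP luminescence (CellTiter-Glo) after 2-day incubation; DMSO and reference compounds served as controls.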

The test system of experiment [2] is L. donovani HU3 strain in mouse peritoneal macrophages. Description: Assay for inhibition of parasitemia of Leishmania donovani in mouse macrophages (SYBR Green nuclei count, high-content imaging). The note with it: read-out: L. donovani in Mouse Macrophages EC50. From the text:
Assay for Inhibition of Parasitemia of Leishmania donovani in Mouse Macrophages
The assay measures the increase in the parasite number in the assayed plate well using a DNA intercalating dye, SYBR Green I® dye (INVITROGEN) to stain Leishmania cell nuclei. L. donovani HU3 strain is propagated by infecting BALB/c mice through tail vein injection with 10^7 Leishmania parasites. Infected mice are allowed to develop infection during 9-11 weeks post-infection. During this time, the parasites accumulate in the infected mouse spleens to large numbers, and the infected mice serve as the source of parasites for the in vitro measurement of compound efficacies. To assay a compound for anti-leishmanial activity, peritoneal macrophages isolated from non-infected BALB/c mice are seeded into 384-well plates at density 2×10^4 macrophages per well in […] of medium (RPM11640, 10% fetal serum albumin, 10 mM HEPES, 1 mM sodium pyruvate, 1% Pen/Strep). Subsequently, the seeded plates are placed into an incubator set to maintain 37° C. temperature and atmosphere with 5% CO2.
The next day, Leishmania parasites are isolated from the spleens of mice infected for 9-11 weeks and 4×10^5 isolated parasites in […] of the above media are added to each plate well. Plates are then returned into incubators and infection is allowed to proceed for 24 hours. After the infection of macrophages is completed, […] of compounds of the invention in the above medium, which also contains 5% DMSO, are added to plate wells containing infected macrophages. At the same time control compounds (miltefosine and amphotericin B) and DMSO are added to plates to serve as the positive and negative controls, respectively. After the compound addition, the plates are returned into incubator and cells infected with parasites are cultured for 5 days. At the end of cultivation, […] of 8% paraformaldehyde is added to plate wells and incubated for 15 min at room temperature. Following the incubation, the paraformaldehyde from plate wells is aspirated, and […] of PBS containing 0.2% Triton X-100 is added to wells. After 15 min incubation, the solution is aspirated from wells again, and replaced with Sybr® Green Dye solution in PBS (1:125,000 dilution). Infected cells are imaged with Evotec Opera high-content microscope, and the number of parasites in well is determined by counting parasite nuclei visualized by staining with Sybr® Green dye.

Experiment [3] has as its system Trypanosoma cruzi amastigotes cultured in 3T3 fibroblast cells. The experiment is described as follows: Assay for growth inhibition of kinetoplastid parasite Trypanosoma cruzi (beta-galactosidase Tulahuen strain, CPRG readout). The settings on record: T. cruzi amastigotes in 3T3 fibroblast cells, read-out: Buckner infectious T. cruzi EC50. In a few lines:
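3T3 fibroblasts (1,000 cells/well) plated overnight, treated with compound in DMSO, then infected with 10,000 Lac-Z-expressing Tulahuen trypomastigotes. After 6 days, 0.6 mM CPRG with 0.6% NP-40 added for 2 h at room temperature; absorbance gives relative intracellular amastigote numbers. Benznidazole and nifurtimox serve as positive controls.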

The test system of experiment [4] is Trypanosoma brucei brucei (Lister 427) strain. Description: Assay for growth inhibition against Trypanosoma brucei brucei (Cell TiterGlo ATP luminescence). The settings on record: T. brucei brucei (Lister 427), read-out: T. Brucei (HAT) EC50. Summed up: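 Growth read-out is cellular ATP by CellTiter-Glo luminescence, measured 30 min after reagent addition, following 2-day incubation at 37 °C in CO2. Parasites (10,000/mL, HMI-9 plus 10% FBS and 10% serum plus) faced 10 threefold dilutions in duplicate; IC50 taken as 50% growth inhibition versus untreated.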
(In general: Cellular ATP, detected with luciferase, serves as a proxy for viable cell number.)

The mark [5] stands for this setting: Leishmania donovani, Peritoneal macrophage, L. donovani in mouse peritoneal macrophages.
Where [6] appears, read: L. donovani in mouse peritoneal macrophages.

One may read the EC50 as the concentration needed to bring the measured effect to its halfway point. Take `O=C(Nc1ccc(F)c(-n2cc3cc(N4CC5(CC5)C4)cnc3n2)c1)[C@H]1C[C@@H]1F` (racemic) [Compound 272, (1R,2S)-N-[3-(5-{5-azaspiro[2.3]hexan-5-yl}-2H-pyrazolo[3,4-b]pyridin-2-yl]-4-fluorophenyl}-2-fluorocyclopropane-1-carboxamide]: the EC50 in experiment [1] (Leishmania donovani) came to 131 nM; in experiment [2] (setting [5]), 85 nM; in experiment [3] (Trypanosoma cruzi, Fibroblast) it was 114 nM; in experiment [4] (Trypanosoma brucei), 351 nM.

On to `O=C(Nc1ccc(F)c(-n2cc3cc(-c4ccccn4)cnc3n2)c1)[C@@H]1C[C@@H]1F` (racemic) [Compound 349, (1S,2S)-2-fluoro-N-{4-fluoro-3-[5-(pyridin-2-yl)-2H-pyrazolo[3,4-b]pyridin-2-yl]phenyl}cyclopropane-1-carboxamide], for which the EC50 in experiment [1] (Leishmania donovani) was 96 nM; in experiment [2] (setting [5]), 102 nM; in experiment [3] (Trypanosoma cruzi, Fibroblast), 85 nM; in experiment [4] (Trypanosoma brucei) it was 43 nM.

On to `O=C(Nc1ccc(F)c(-n2cc3cc(-c4ccccn4)cnc3n2)c1)[C@@H]1C[C@H]1F` (single isomer, unassigned) [Compound 256], for which the EC50 stood at 11 nM in experiment [1] (Leishmania donovani); 38 nM in experiment [2] (setting [5]); 5 nM in experiment [3] (Trypanosoma cruzi, Fibroblast); 27 nM in experiment [4] (Trypanosoma brucei).

Consider `O=C(Nc1ccc(F)c(-n2cc3cc(N4CC(F)(F)C4)cnc3n2)c1)[C@@H]1C[C@H]1F` (single isomer, unassigned) [Compound 268, (1 S,2R)—N-(3-(5-(3,3-difluoroazetidin-1-yl)-2H-pyrazolo[3,4-b]pyridin-2-yl)-4-fluorophenyl)-2-fluorocyclopropane-1-carboxamide or (1R,2S)—N-(3-(5-(3,3-difluoroazetidin-1-yl)-2H-pyrazolo[3,4-b]pyridin-2-yl)-4-fluorophenyl)-2-fluorocyclopropane-1-carboxamide], for which the concentration giving a half-maximal response (EC50) in experiment [1] (Leishmania donovani) came out at 84 nM; in experiment [2] (setting [6]), 273 nM; in experiment [3] (Trypanosoma cruzi, Fibroblast) it was 82 nM; in experiment [4], 116 nM.

In the case of `O=C(Nc1ccc(F)c(-n2cc3cc(-c4ccccn4)cnc3n2)c1)[C@H]1C[C@@H]1F` (single isomer, unassigned) [Compound 269, (1 S,2R)-2-fluoro-N-(4-fluoro-3-(5-(pyridin-2-yl)-2H-pyrazolo[3,4-b]pyridin-2-yl)phenyl)cyclopropane-1-carboxamide or (1R,2S)-2-fluoro-N-(4-fluoro-3-(5-(pyridin-2-yl)-2H-pyrazolo[3,4-b]pyridin-2-yl)phenyl)cyclopropane-1-carboxamide], the EC50 came out at 19 nM in experiment [1] (Leishmania donovani); 32 nM in experiment [2] (setting [6]); 9 nM in experiment [3] (Trypanosoma cruzi, Fibroblast); 20 nM in experiment [4].

Turning to `O=C(Nc1ccc(F)c(-n2cc3cc(N4CC(F)(F)C4)cnc3n2)c1)[C@@H]1C[C@H]1F` (single isomer, unassigned) [Compound 271, (1 S,2R)—N-(3-(5-(3,3-difluoroazetidin-1-yl)-2H-pyrazolo[3,4-b]pyridin-2-yl)-4-fluorophenyl)-2-fluorocyclopropane-1-carboxamide or (1R,2S)—N-(3-(5-(3,3-difluoroazetidin-1-yl)-2H-pyrazolo[3,4-b]pyridin-2-yl)-4-fluorophenyl)-2-fluorocyclopropane-1-carboxamide], the EC50 in experiment [1] amounted to 120 nM; in experiment [2] (setting [6]), 3 nM; in experiment [3], 144 nM; in experiment [4] it was 388 nM.

Regarding `O=C(Nc1ccc(F)c(-n2cc3cc(-c4ccccn4)cnc3n2)c1)[C@H]1C[C@@H]1F` (single isomer, unassigned) [Compound 273, (1 S,2R)-2-fluoro-N-(4-fluoro-3-(5-(pyridin-2-yl)-2H-pyrazolo[3,4-b]pyridin-2-yl)phenyl)cyclopropane-1-carboxamide or (1R,2S)-2-fluoro-N-(4-fluoro-3-(5-(pyridin-2-yl)-2H-pyrazolo[3,4-b]pyridin-2-yl)phenyl)cyclopropane-1-carboxamide], the EC50 in experiment [1] is 27 nM; in experiment [2] (setting [6]), 6 nM; in experiment [3] it was 17 nM; in experiment [4], 45 nM.

As to `O=C(Nc1ccc(F)c(-n2cc3cc(N4CC(F)(F)C4)cnc3n2)c1)[C@H]1C[C@@H]1F` (single isomer, unassigned) [Compound 339], the EC50 in experiment [1] (Leishmania donovani) came out at 1590 nM; in experiment [2] (setting [5]), 310 nM; in experiment [3] (Trypanosoma cruzi, Fibroblast) it was 112 nM; in experiment [4] (Trypanosoma brucei), 163 nM.

In the case of `Cc1cccnc1-c1cnc2nn(-c3cc(NC(=O)c4ccco4)ccc3F)cc2c1` [Compound 2, N-(4-fluoro-3-(5-(3-methylpyridin-2-yl)-2H-pyrazolo[3,4-b]pyridin-2-yl)phenyl)furan-2-carboxamide], the EC50 was 3 nM in experiment [1] (Leishmania donovani); 4.4 nM in experiment [2] (setting [5]); 1 nM in experiment [3] (Trypanosoma cruzi, Fibroblast); less than 23 nM in experiment [4] (Trypanosoma brucei).

Turning to `Cc1cccnc1-c1cnc2nn(-c3cc(NC(=O)N4CCC4)ccc3F)cc2c1` [Compound 3, N-(4-fluoro-3-(5-(3-methylpyridin-2-yl)-2H-pyrazolo[3,4-b]pyridin-2-yl)phenyl)azetidine-1-carboxamide], the concentration for a half-maximal effect (EC50) in experiment [1] (Leishmania donovani) is 1.8 nM; in experiment [2] (setting [5]), 2 nM; in experiment [3] (Trypanosoma cruzi, Fibroblast), 1.6 nM; in experiment [4] (Trypanosoma brucei), less than 23 nM.

For `CC(C)Cc1cnc2nn(-c3cc(NC(=O)N4CCC4)ccc3F)cc2c1` [Compound 7, N-(4-fluoro-3-(5-isobutyl-2H-pyrazolo[3,4-b]pyridin-2-yl)phenyl)azetidine-1-carboxamide], the EC50 in experiment [1] (Leishmania donovani) is 7.7 nM; in experiment [2] (setting [5]), 4 nM; in experiment [3] (Trypanosoma cruzi, Fibroblast), 1.6 nM; in experiment [4] (Trypanosoma brucei), less than 23 nM.

For `CC(C)Cc1cnc2nn(-c3cc(NC(=O)N4CC(F)(F)C4)ccc3F)cc2c1` [Compound 8, 3,3-difluoro-N-(4-fluoro-3-(5-isobutyl-2H-pyrazolo[3,4-b]pyridin-2-yl)phenyl)azetidine-1-carboxamide], the EC50 in experiment [1] (Leishmania donovani) is 7.7 nM; in experiment [2] (setting [5]) it was 3.3 nM; in experiment [3] (Trypanosoma cruzi, Fibroblast), 4.5 nM; in experiment [4] (Trypanosoma brucei), less than 23 nM.

Turning to `CN(C)c1cnc2nn(-c3cc(NC(=O)N4CC(F)(F)C4)ccc3F)cc2c1` [Compound 9, N-(3-(5-(dimethylamino)-2H-pyrazolo[3,4-b]pyridin-2-yl)-4-fluorophenyl)-3,3-difluoroazetidine-1-carboxamide], the EC50 stood at 8.7 nM in experiment [1] (Leishmania donovani); 11 nM in experiment [2] (setting [5]); 9.8 nM in experiment [3] (Trypanosoma cruzi, Fibroblast); 35 nM in experiment [4] (Trypanosoma brucei).

As to `O=C(Nc1ccc(F)c(-n2cc3cc(N4CCC4)cnc3n2)c1)N1CCC1` [Compound 10, N-(3-(5-(azetidin-1-yl)-2H-pyrazolo[3,4-b]pyridin-2-yl)-4-fluorophenyl)azetidine-1-carboxamide], the EC50 in experiment [1] (Leishmania donovani) is 16 nM; in experiment [2] (Leishmania donovani, Peritoneal macrophage), 7.8 nM; in experiment [3] (Trypanosoma cruzi), 4.8 nM; in experiment [4] (Trypanosoma brucei), less than 23 nM.

On to `CC(C)Cc1cnc2nn(-c3cc(NC(=O)N4CC(F)C4)ccc3F)cc2c1` [Compound 14, 3-fluoro-N-{4-fluoro-3-[5-(2-methylpropyl)-2H-pyrazolo[3,4-b]pyridin-2-yl]phenyl}azetidine-1-carboxamide], for which the EC50 in experiment [1] (Leishmania donovani) was 12 nM; in experiment [2] (setting [5]), 9.7 nM; in experiment [3] (Trypanosoma cruzi, Fibroblast) it was 2 nM; in experiment [4] (Trypanosoma brucei), less than 23 nM.

In the case of `O=C(Nc1ccc(F)c(-n2cc3cc(C4CC4)cnc3n2)c1)N1CC(F)C1` [Compound 15, N-(3-{5-cyclopropyl-2H-pyrazolo[3,4-b]pyridin-2-yl}-4-fluorophenyl)-3-fluoroazetidine-1-carboxamide], the EC50 was 13 nM in experiment [1] (Leishmania donovani); 17 nM in experiment [2] (setting [5]); 5 nM in experiment [3] (Trypanosoma cruzi, Fibroblast); less than 23 nM in experiment [4] (Trypanosoma brucei).
